# Test results: paper PMC4841536, “Characterization of the Anti-HCV Activities of the New Cyclophilin Inhibitor STG-175” (PLoS ONE, 2016)
# Key:
# [1] = alamarBlue cytotoxicity (CC50), GT1a replicon cell line; settings: human
# Method: The anti-HCV activity of STG-175 was conducted using a panel of luciferase reporter replicon cell lines including GT1a, GT1b, GT2a, GT3a and GT4a as we described previously. The GT1a subgenomic renilla luciferase reporter replicon H77 RLucP (7) was supplied by Dr. Delaney. The GT1b subgenomic firefly luciferase reporter replicon pFK-I389/NS3-3’ [29] was supplied by Dr. Bartenschlager. The GT1B subgenomic NS3, NS5A and NS5B mutants were created via homologous recombination using the In-Fusion HD Cloning kit (Clontech) as we described previously. The GT2a genomic luciferase reporter replicon Luc-Neo-JFH-1 was generated as previously. The plasmid pFK-Luc-JFH1 was supplied from Drs. […] The CellTiter-Fluor™ Cell Viability Assay is a non-lytic fluorescence assay, which measures the number of live cells. […] Luciferase activity was determined using the Luciferase Assay System (Promega) in a Berthold luminometer. […] Viable cells continuously convert resazurin to resorufin, increasing the overall fluorescence and color of the media surrounding cells.
# Fig 2 Anti-HCV activities of STG-175 among GTs. […] Luciferase activity was determined using the Luciferase Assay System in a Berthold luminometer. […] Data are expressed as mean of relative light units and calculated EC50s are presented. […]
# [2] = test system: NS5Ai-resistant L31V NS5A Con1 GT1b replicon; experiment: Electroporated Con1 RNA replication in Huh7.5.1 cells (RT-qPCR), L31V NS5A; assay type: cell-based; settings: Hepatitis C virus, Huh-7.5.1, 192 h, read-out: EC50 L31V NS5A
# Source text: The GT1b subgenomic firefly luciferase reporter replicon pFK-I389/NS3–3 was provided by R. Bartenschlager. The GT1B subgenomic NS3, NS5A and NS5B mutants were created via homologous recombination using the In-Fusion HD Cloning kit (Clontech) as we described previously. […] The in vitro transcription of wild-type and mutant Con1 RNA was accomplished using the T7 MEGAscript kit (Ambion) by following the manufacturer’s instructions. In vitro-transcribed RNAs were introduced into Huh7.5.1 cells by electroporation. Trypsinized cells were washed twice and resuspended in phosphate-buffered saline (PBS) (calcium-free and magnesium-free) at 1x 10^7 cells per ml. Ten micrograms of RNA for each mutant was mixed with 0.4 mL of cells in a 4-mm cuvette, and a Bio-Rad Gene Pulser system was used to deliver a single pulse at 0.27 kV, 100 ohms, and 960 μF. […] RNA transfection efficiency and HCV subgenomic replication were assessed by reverse transcription-quantitative PCR (RT-qPCR) and presented as genome equivalents (GE) per microgram of total RNA as described previously. We measured by RT-qPCR the replication of wild-type, STG-175-, NS5Ai-, NS3i- and NS5Bi-resistant mutants in the presence of increasing concentrations of SGT-175, daclatasvir, telaprevir, boceprevir and sofosbuvir over a period of 8 days.
# Fig 5 Cross-resistance analyses. […] Data are expressed as log of GE/μg of total RNA. […]
# [3] = test system: subgenomic Con1 (GT1b) replicon in Huh-7 cells; settings: 0.25, 0.5 or 1 μM, 7 passages with drug then 3 passages without; HCV RNA by RT-qPCR
# Method: Cells were grown until they reached 90% confluence, trypsinized and re-seeded at the same cell concentration in a new 10-cm dish with the same drug concentration. […] Then drugs were removed to allow viral replication rebound to occur. At each passage, sample of cells were collected, RNA extracted according to the manufacturer's instructions and analyzed by RT-PCR for HCV RNA levels.
# Fig 3 Replicon clearance, replication rebound and resistance analyses. […] Then drugs were removed to allow viral replication rebound to occur. At each passage, samples of cells were collected, RNA extracted and analyzed by RT-PCR for HCV RNA levels. B. Emergence of resistance: Con1 replicon Huh-7 cells were passaged 22 times in the absence or presence of STG-175 or selected DAAs. At each passage, sample of cells were collected, RNA extracted and analyzed by RT-PCR for HCV RNA levels. C. […] Data are expressed as number of HCV RNA copies per cell. […] Data are expressed as mean of relative light units and calculated EC50s are presented. […] E. Degree of resistance of D320E and Y321N Con1 variants: Left panel. Wild-type (WT), D320E and D320/Y321N NS5A Con1 RNA were electroporated into Huh7.5.1 cells and replication monitored over 8 days by quantifying the levels of intracellular HCV RNA. Right panel. Same as just above except that increasing concentrations of STG-175 were added at the time of the electroporation. […]
smiles,measurement,setting,value
CC=CCC(C)C(O)C1C(=O)NC(CC)C(=O)N(C)C(CSCCCCO)C(=O)N(C)C(CC(C)(C)O)C(=O)NC(C(C)C)C(=O)N(C)C(CC(C)C)C(=O)NC(C)C(=O)NC(C)C(=O)N(C)C(CC(C)C)C(=O)N(C)C(CC(C)C)C(=O)N(C)C(C(C)C)C(=O)N1C (stereo not drawn) [STG-175],CC50 at 72 h,[1],> 10000 nM
same,EC50,[2],15.1 nM
same,viral replication rebound after drug removal,[3],no replication rebound was observed
